# From ChEMBL document CHEMBL1201862, “PubChem BioAssay data set” (2004)
# Activity calls are given as the source filed them.
# Assays:
# Beta-galactosidase = Beta-galactosidase (Escherichia coli, UniProt Q8VNN2); assay: PubChem AID 485352; assay type: functional
# [1] = biological target: T1, Type-1 angiotensin II receptor (Homo sapiens, UniProt P30556); assay: antagonism of angiotensin II type 1 receptor – cell-based, uHTS hits, selectivity assay for APJ receptor antagonist project, dose response (AID 463214); assay type: functional;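 further: antagonist potency against angiotensin II stimulated AT1 response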
# T1 sequence (P30556 whole entry): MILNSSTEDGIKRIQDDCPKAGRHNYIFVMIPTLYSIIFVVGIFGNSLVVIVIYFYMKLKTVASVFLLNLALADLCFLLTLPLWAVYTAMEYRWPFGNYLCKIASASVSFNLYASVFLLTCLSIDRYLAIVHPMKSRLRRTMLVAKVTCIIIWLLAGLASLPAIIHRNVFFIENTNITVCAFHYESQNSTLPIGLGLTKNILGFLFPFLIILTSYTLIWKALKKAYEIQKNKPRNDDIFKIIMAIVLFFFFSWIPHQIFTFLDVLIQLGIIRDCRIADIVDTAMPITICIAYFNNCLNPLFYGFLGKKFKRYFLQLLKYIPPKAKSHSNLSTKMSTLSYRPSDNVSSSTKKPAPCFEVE
# [2] = HGIII-sPLA2 enzyme inhibition potency – biochemical, QFRET, IC50, dose response (AID 743457);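 further: green fluorescence rise as the enzyme cleaves BODIPY PC-A2 in liposomes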
# [3] = biological target: T2, Polyadenylate-binding protein 1 (Homo sapiens, UniProt P11940); assay: MLLE binding blockers, Cy5 peptide tracer – biochemical, fluorescence polarization, Cy5-PAM2 peptide, secondary, miRNA deadenylation inhibitor project, dose response (AID 602260); assay type: functional; conditions: read-out: IC50_Mean
# [4] = biological target: T2, Polyadenylate-binding protein 1; assay: MLLE domain peptide-binding blockers, IC50 – biochemical, fluorescence polarization, FITC-PAM2 peptide, dose response (AID 602259); assay type: functional; conditions: read-out: IC50_Mean
# Protein Tat = biological target: T3, Protein Tat (Human immunodeficiency virus type 1 group M subtype B (isolate HXB2)(HIV-1), UniProt P04608); assay type: functional;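 further: tat binding to TAR RNA read out by fluorescence polarization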
# T3 sequence (P04608 whole entry): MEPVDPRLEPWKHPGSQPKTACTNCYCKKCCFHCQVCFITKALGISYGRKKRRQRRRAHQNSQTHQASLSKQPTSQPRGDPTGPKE
# [5] = biological target: T4, Neuropeptide Y receptor type 1 (Homo sapiens, UniProt P25929); assay type: functional;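 further: HEK293 cells with a CNG channel challenged with NPY then isoproterenol; potency as antagonist that reverses NPY suppression of cAMP signal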
# T4 sequence (P25929 whole entry): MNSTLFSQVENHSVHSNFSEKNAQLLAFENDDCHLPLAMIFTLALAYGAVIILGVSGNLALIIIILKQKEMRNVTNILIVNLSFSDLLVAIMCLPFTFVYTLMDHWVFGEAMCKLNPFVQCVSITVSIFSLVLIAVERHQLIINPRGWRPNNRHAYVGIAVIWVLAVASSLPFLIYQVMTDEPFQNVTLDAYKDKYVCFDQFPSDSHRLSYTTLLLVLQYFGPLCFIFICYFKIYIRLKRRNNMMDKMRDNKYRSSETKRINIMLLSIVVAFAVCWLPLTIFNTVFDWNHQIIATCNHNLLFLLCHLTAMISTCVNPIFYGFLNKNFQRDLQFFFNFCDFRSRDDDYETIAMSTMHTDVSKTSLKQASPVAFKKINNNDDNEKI
# [6] = biological target: T5, Neuropeptide Y receptor type 2 (Homo sapiens, UniProt P49146); assay type: functional, cell-based;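 further: HEK293 cells expressing the receptor and a CNG channel; stimulus was NPY near EC95 followed by isoproterenol to raise cAMP; antagonist potency measured as restoring cAMP signal that NPY suppresses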
# T5 sequence (P49146 whole entry): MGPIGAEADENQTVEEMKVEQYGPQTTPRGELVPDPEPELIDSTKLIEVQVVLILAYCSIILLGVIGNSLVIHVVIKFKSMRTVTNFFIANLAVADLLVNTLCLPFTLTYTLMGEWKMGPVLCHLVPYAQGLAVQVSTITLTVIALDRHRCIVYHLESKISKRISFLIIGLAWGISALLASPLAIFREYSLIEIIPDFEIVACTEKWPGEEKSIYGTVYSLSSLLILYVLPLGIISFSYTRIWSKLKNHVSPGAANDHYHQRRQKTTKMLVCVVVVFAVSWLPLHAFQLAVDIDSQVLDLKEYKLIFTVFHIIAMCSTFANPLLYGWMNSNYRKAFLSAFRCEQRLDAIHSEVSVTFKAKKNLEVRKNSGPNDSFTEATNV
# Estrogen receptor beta = Estrogen receptor beta (Homo sapiens, UniProt Q92731); assay: blockers of SRC-3 recruitment to ERβ – biochemical, ELISA, streptavidin-HRP readout, orthogonal assay, confirmation (AID 1060)
# Albumin = Albumin (Bos taurus, UniProt P02769); assay: Counterscreen for inhibitors of T-cell receptor (TCR)-CD3 interaction: Fluorescence-based biochemical high throughput dose response assay to identify inhibitors of T-cell receptor (TCR)-CD3 interaction using a TAMRA-labeled BSA probe.; assay type: functional
# Large T antigen = Large T antigen (Simian virus 40, UniProt P03070); assay type: functional, Betapolyomavirus macacae;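 further: Confirmatory-stage PubChem screen for compounds that inhibit SV40 T antigen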
# Genome polyprotein = Genome polyprotein (dengue virus type 2, UniProt P29990); assay: flavivirus cap methylation enzyme inhibition – biochemical, confirmation dose response, primary screen (AID 588689); assay type: functional
# [7] = viability loss in HeLa cells – cytotoxicity control for MgcRacGAP inhibitor project, dose response (AID 624300); assay type: functional
# [8] = biological target: T6, Rac GTPase-activating protein 1 (Homo sapiens, UniProt Q9H0H5); assay: blockers of MgcRacGAP-driven Rac1 GTP hydrolysis – biochemical, ADP Hunter fluorescence, primary and confirmatory, confirmation (AID 624330); assay type: functional
# T6 sequence (Q9H0H5 whole entry): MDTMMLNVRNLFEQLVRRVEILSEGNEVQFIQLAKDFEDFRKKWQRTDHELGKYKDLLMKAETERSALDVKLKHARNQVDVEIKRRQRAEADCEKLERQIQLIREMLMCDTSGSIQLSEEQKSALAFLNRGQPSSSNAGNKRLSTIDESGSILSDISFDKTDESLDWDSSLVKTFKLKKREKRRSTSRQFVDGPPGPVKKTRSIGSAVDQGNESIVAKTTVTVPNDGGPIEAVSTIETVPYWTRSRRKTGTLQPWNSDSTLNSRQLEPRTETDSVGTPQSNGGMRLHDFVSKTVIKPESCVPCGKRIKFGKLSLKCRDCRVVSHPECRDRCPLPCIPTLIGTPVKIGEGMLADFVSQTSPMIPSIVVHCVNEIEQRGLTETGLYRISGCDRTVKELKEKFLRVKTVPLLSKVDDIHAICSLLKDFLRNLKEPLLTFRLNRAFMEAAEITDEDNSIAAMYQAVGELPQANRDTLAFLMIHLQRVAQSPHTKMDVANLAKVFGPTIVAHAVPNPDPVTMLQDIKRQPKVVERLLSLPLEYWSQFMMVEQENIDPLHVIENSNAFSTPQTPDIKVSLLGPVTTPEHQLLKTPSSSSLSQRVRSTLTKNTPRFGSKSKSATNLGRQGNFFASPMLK
# [9] = NIH-3T3 fibroblast cytotoxicity, dose response, cytotoxicity control, cell-based, fluorescence, Alamar Blue, secondary assay (AID 2327); assay type: functional;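 further: NIH-3T3 mouse fibroblasts cultured with fluconazole at 8 µg/mL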
# [10] = fluconazole-exposed Candida albicans growth modulators – fluorescence, retest, confirmation (AID 2467); assay type: functional, cell-based
# [11] = viability of uninfected HEp-2 cells – cell-based, HTS, cytotoxicity control for RSV inhibitor project, dose response (AID 2410); assay type: functional; conditions: human respiratory syncytial virus
# Paired box protein Pax-8 = Paired box protein Pax-8 (Homo sapiens, UniProt Q06710); assay: PAX8 transcriptional activity inhibition in RMG-I – RMG-I cells, luciferase, cherry-pick, dose response (AID 687027); assay type: functional, cell-based;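 further: luciferase reporter driven by Pax8 target thyroperoxidase promoter measured by SteadyGlo luminescence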
# [12] = OVCAR8 cell viability loss – plate reader, dry powder samples, PAX8 project, dose response (AID 743197); assay type: functional, cell-based; conditions: OVCAR-8
# [13] = T. cruzi growth inhibition in host cells, dose response, cell-based, plate reader, dry powder, set 2 (AID 652275); assay type: functional
# [14] = CellTiter-Glo luminescence survival assay, SW480 colon tumor line, concentration-response curve, half-maximal inhibitory concentration (AID 1117338); assay type: functional
# [15] = RKO cell viability reduction, dose response, CellTiter-Glo luminescence (AID 1117322); assay type: functional
# [16] = SNU-C1 cell viability reduction, dose response, CellTiter-Glo luminescence (AID 1117323); assay type: functional, cell-based
# [17] = cytotoxicity toward Colo320 cells – cell-based, CellTiter-Glo luminescence, IC50, dose response (AID 1117334); assay type: functional; conditions: COLO 320
# [18] = Reduced DLD-1 viability, concentration-response, CellTiter-Glo luminescence (AID 1117352); assay type: functional
# [19] = HCT116 cell viability decrease, GSK3B pretreatment – CellTiter-Glo, IC50, dose response (AID 1117339); assay type: functional; conditions: HCT-116
# [20] = cytotoxicity toward HCT116 cells – cell-based, CellTiter-Glo luminescence, IC50, dose response (AID 1117332); assay type: functional; conditions: HCT-116
# [21] = cytotoxicity toward HT-29 cells – cell-based, CellTiter-Glo luminescence, IC50, dose response (AID 1117330); assay type: functional
# [22] = rise of 2N DNA cells, HeLa – IC50, dose response (AID 1117349); assay type: functional, cell-based
# [23] = rise of 4N DNA cells, HeLa – IC50, dose response (AID 1117351); assay type: functional, cell-based
# Sequence of Albumin (P02769 whole entry): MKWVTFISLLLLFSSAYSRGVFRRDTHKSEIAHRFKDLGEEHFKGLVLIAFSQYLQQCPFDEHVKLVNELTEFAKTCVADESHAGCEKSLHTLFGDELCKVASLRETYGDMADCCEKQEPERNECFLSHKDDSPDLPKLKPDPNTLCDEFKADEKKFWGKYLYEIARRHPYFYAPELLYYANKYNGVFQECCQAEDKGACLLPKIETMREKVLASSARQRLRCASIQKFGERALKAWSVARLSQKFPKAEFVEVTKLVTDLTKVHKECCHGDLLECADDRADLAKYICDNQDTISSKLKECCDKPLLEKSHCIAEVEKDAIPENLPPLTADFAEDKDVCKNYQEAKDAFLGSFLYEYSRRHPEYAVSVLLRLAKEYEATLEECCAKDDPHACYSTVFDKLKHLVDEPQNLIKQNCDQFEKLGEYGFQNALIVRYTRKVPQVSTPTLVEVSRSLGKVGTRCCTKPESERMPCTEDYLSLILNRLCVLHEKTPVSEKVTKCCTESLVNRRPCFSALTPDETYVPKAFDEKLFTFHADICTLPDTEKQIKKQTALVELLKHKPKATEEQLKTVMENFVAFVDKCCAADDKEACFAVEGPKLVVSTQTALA
# T2 sequence (P11940 whole entry, the tested form may be a part): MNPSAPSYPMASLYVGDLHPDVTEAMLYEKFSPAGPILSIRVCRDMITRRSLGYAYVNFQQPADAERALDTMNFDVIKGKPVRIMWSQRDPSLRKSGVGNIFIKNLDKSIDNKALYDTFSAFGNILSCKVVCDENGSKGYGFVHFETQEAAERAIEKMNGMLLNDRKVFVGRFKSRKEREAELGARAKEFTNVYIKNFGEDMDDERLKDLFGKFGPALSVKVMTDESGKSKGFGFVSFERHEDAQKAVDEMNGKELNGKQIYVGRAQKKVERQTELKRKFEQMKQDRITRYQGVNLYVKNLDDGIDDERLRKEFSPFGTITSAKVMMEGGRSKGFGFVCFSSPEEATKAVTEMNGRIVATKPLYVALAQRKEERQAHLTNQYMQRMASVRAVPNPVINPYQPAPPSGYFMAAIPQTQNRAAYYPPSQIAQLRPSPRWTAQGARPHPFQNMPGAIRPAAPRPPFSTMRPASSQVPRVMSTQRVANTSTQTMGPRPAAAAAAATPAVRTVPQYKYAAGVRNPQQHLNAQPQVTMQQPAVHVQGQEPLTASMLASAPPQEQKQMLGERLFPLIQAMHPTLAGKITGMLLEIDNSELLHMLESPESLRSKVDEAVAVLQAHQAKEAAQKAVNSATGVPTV
# Sequence of Beta-galactosidase (Q8VNN2 whole entry): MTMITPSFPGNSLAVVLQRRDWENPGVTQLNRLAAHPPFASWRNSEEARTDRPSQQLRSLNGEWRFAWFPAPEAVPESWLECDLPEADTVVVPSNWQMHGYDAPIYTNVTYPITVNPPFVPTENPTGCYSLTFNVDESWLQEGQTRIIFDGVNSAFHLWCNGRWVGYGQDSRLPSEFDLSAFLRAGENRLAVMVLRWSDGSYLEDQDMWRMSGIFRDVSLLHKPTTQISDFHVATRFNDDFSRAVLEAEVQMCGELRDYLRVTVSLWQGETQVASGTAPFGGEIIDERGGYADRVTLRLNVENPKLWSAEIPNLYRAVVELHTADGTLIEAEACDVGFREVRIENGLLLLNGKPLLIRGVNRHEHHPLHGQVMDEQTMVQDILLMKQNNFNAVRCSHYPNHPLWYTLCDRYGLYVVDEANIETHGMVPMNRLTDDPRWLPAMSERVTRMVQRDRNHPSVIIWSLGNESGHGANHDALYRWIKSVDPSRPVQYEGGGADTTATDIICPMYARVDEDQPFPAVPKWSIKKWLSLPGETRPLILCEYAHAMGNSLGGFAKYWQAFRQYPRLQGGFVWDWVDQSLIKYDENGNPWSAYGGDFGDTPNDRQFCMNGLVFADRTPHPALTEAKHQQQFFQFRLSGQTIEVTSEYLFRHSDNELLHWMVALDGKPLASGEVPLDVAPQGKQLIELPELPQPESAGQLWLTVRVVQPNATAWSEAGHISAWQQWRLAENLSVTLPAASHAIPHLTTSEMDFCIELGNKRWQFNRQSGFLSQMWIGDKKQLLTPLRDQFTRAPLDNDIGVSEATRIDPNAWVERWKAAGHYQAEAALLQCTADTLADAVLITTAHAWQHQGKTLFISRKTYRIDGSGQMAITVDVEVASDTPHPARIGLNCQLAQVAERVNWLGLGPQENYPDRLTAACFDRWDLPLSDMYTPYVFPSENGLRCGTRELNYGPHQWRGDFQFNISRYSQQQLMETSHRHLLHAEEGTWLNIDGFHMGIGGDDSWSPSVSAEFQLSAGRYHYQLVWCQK
# Sequence of Large T antigen (P03070 whole entry): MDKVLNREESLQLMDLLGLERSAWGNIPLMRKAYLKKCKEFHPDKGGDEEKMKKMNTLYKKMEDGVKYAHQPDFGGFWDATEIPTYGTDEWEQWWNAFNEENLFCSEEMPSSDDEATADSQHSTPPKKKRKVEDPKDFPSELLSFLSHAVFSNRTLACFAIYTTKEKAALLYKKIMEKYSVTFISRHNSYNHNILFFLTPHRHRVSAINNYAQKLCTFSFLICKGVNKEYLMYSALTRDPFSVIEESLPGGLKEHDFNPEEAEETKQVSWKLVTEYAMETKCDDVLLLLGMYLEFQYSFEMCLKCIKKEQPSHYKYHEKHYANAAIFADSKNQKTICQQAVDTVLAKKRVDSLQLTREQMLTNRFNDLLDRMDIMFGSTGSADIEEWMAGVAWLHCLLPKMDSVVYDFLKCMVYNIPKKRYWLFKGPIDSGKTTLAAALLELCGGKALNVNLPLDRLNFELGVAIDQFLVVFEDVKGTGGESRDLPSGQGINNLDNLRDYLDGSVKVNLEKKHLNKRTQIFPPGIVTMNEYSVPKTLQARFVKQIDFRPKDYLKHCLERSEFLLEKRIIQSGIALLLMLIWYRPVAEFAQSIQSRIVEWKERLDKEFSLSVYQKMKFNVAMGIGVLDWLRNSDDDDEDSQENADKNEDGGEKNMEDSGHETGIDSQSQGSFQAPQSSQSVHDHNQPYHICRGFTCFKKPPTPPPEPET
# Sequence of Estrogen receptor beta (Q92731 whole entry): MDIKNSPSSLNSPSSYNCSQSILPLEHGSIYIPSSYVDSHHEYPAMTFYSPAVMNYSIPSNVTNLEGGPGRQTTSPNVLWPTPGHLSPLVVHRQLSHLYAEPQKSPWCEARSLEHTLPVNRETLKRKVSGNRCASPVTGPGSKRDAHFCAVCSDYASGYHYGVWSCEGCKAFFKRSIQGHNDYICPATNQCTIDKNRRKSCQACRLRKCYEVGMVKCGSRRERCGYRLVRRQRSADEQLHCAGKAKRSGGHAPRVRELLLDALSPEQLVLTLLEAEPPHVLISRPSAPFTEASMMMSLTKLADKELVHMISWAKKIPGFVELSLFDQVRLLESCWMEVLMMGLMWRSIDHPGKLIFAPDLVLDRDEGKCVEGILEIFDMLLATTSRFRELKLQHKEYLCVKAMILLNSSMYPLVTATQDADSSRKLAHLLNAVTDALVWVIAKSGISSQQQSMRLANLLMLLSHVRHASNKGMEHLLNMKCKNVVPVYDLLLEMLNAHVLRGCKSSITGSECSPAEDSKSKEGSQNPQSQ
# Sequence of Genome polyprotein (P29990 2492-3391 limits assumed): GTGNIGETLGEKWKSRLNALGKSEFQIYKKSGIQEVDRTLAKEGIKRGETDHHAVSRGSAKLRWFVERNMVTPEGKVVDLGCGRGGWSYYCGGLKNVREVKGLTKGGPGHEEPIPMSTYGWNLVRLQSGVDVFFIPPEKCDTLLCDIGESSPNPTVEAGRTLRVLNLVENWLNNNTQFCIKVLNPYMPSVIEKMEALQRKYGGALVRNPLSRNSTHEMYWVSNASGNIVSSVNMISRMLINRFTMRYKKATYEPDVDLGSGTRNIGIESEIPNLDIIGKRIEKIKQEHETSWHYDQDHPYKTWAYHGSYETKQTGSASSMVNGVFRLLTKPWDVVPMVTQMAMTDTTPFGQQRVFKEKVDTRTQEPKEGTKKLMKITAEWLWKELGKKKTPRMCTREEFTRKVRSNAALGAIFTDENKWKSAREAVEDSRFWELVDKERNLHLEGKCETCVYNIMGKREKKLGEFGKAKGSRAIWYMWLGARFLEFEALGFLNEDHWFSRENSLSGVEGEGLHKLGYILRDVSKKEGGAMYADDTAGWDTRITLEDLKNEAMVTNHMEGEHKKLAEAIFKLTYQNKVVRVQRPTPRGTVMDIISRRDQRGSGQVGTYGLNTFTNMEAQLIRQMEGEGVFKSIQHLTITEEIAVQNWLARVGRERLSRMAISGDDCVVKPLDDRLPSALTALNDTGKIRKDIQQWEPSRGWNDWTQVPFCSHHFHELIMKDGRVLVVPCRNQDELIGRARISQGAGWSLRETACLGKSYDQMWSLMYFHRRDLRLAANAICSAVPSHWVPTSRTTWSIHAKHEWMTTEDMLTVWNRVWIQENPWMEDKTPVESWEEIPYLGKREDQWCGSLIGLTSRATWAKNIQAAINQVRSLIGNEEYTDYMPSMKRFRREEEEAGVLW
# Sequence of Paired box protein Pax-8 (Q06710 whole entry): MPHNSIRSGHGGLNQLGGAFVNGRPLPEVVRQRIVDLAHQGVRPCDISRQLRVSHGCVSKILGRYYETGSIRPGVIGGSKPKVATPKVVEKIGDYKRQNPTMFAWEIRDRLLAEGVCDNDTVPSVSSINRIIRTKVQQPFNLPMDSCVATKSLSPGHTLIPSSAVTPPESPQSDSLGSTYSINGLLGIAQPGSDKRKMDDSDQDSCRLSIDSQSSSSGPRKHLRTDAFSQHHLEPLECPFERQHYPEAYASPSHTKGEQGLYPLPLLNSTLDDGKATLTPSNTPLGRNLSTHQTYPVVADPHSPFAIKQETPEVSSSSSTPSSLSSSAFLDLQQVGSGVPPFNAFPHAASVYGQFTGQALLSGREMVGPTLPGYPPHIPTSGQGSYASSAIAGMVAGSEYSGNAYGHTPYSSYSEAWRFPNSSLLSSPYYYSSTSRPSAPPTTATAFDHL
smiles,measurement,setting,value
CCN=C(S)NNc1nnc(-c2ccccc2)c(-c2ccccc2)n1,EC50,Beta-galactosidase,> 40 µM (inactive)
same,IC50,[1],> 40 µM (not active)
same,IC50,[2],> 122 µM (inactive)
C=CCn1c(SCC(=O)c2cc(C)n(C(C)COC)c2C)nc2sc(C)c(C)c2c1=O (centres undefined),IC50,[3],> 66 µM (inactive)
same,IC50,[4],> 66 µM (inactive)
same,IC50,Protein Tat,> 100 µM (active)
CCC(NCCC(c1ccccc1)c1ccccc1)=C1C(=O)N(C)C(=O)N(C)C1=O,IC50,[5],5.26 µM (active)
same,IC50,[6],5.26 µM (active)
C=CCN1C(=O)NC(=O)/C(=C(/CC)NCCN2CCOCC2)C1=O,IC50,Protein Tat,> 100 µM (active)
N#Cc1ccc(N2CCN(C(=O)CCCCCn3c(=S)[nH]c4ccccc4c3=O)CC2)cc1,IC50,Estrogen receptor beta,10.5 µM (not active)
Cc1n[nH]c(S/C(=C/c2ccc(OCc3ccc(C(=O)O)cc3)cc2)C(=O)O)n1,IC50,Albumin,> 94.1 µM (inactive)
CC1=NN(c2ccc(Cl)c(C(=O)O)c2)C(=O)/C1=C/c1ccc(-c2ccccc2[N+](=O)[O-])o1,IC50,Large T antigen,15.7 µM (active)
same,IC50,Genome polyprotein,9.5 µM (active)
same,CC50,[7],100 µM (active)
same,IC50,[8],28.7 µM (active)
Cc1onc(-c2ccccc2Cl)c1C(=O)Nc1sc2c(c1C#N)CCC2,EC50,[9],> 160 µM (inactive)
same,IC50,[5],7.12 µM (active)
same,EC50,[10],1.59 µM (active)
same,IC50,[6],5.86 µM (active)
COc1ccc(-c2cc(C(=O)N3CCCCCC3)c3ccccc3n2)c(OC)c1,CC50,[11],40.8 µM (active)
same,IC50,cells,28 µM (active)
Cc1cc(C(=O)NNC(S)=NC(C)c2ccccc2)c2ccccc2n1 (centres undefined),EC50,[9],> 150 µM (inactive)
same,EC50,[10],> 38 µM (not active)
same,IC50,[2],> 122 µM (inactive)
O=C1NC(=O)N(Cc2ccco2)C(=O)/C1=C/NNC(=O)c1ccccc1,IC50,Albumin,> 94.2 µM (inactive)
Cc1ccc(S(=O)(=O)C(c2ccccc2)c2c(C)noc2C)cc1 (centres undefined),IC50,[5],> 35 µM (not active)
same,IC50,[6],3.92 µM (active)
C[C@@H]1CCCCO[C@@H](CN(C)C(=O)Nc2cccc3ccccc23)[C@H](C)CN([C@H](C)CO)C(=O)c2cc(NS(=O)(=O)c3ccccc3)ccc2O1,AC50,Paired box protein Pax-8,3.66 µM (active)
same,AC50,[12],> 70 µM (inactive)
CC(C)(C)[S@@+]([O-])N1Cc2cc(C(=O)NCc3ccc4c(c3)OCO4)nc(-c3cccc(-c4ccccc4)c3)c2[C@H]1CCO,AC50,[13],0.309 µM (active)
O=C(Cc1ccccn1)N1CCCCN2[C@@H](CO)[C@H](c3ccc(-c4ccc(F)cc4)cc3)[C@@H]2C1,AC50,[13],1.43 µM (active)
O=C1C(=O)N(Cc2ccc(-c3ccsc3)cc2)c2ccc(OC(F)(F)F)cc21,IC50,[2],25.5 µM (inactive)
CCOP(=S)(OCC)SCSc1ccc(Cl)cc1 [CARBOFENOTION],IC50,[14],> 20 µM (inactive)
same,IC50,[15],> 20 µM (inactive)
same,IC50,[16],> 20 µM (inactive)
same,IC50,[17],> 20 µM (inactive)
same,IC50,[18],> 20 µM (inactive)
same,IC50,[19],> 20 µM (inactive)
C=CCN1CC[C@]23CCCC[C@H]2[C@H]1Cc1ccc(O)cc13 [LEVALLORPHAN],IC50,[14],> 20 µM (inactive)
same,IC50,[15],> 20 µM (inactive)
same,IC50,[20],> 20 µM (inactive)
same,IC50,[16],> 20 µM (inactive)
same,IC50,[17],> 20 µM (inactive)
same,IC50,[21],> 20 µM (inactive)
same,IC50,[18],> 20 µM (inactive)
same,IC50,[19],> 20 µM (inactive)
COC(=O)Nc1nc2cc([S+]([O-])c3ccccc3)ccc2[nH]1 (centres undefined) [OXFENDAZOLE],IC50,[22],0.326 µM (active)
same,IC50,[14],> 20 µM (inactive)
same,IC50,[15],0.001 µM (active)
same,IC50,[20],0.001 µM (active)
same,IC50,[23],0.331 µM (active)
same,IC50,[21],> 20 µM (inactive)
same,IC50,[18],> 20 µM (inactive)
same,IC50,[19],0.001 µM (active)
O=C(Nc1ccc(Br)cc1)c1cc(Br)cc(Br)c1O [TRIBROMSALAN],IC50,[22],> 10 µM (inactive)
same,IC50,[14],0.001 µM (active)
same,IC50,[15],0.003 µM (active)
same,IC50,[20],0.003 µM (active)
same,IC50,[16],0.001 µM (active)
same,IC50,[17],0.003 µM (active)
same,IC50,[23],> 10 µM (inactive)
same,IC50,[21],0.001 µM (active)
same,IC50,[18],0.001 µM (active)
same,IC50,[19],0.001 µM (active)
